Data: US8835379B2, “Derivatives of CGRP” (Novo Nordisk A/S, priority 2009, dated 2014)

Experiments:
[1] = target: CGRP receptor (calcitonin receptor-like receptor (CRLR), receptor activity modifying protein-1 (RAMP1)) (Homo sapiens, UniProt O60894+Q16602); test: CGRP-induced cAMP accumulation in CGRP receptor expressing cells (CHO, CRE luciferase reporter); type: cell-based
Experimental: Chinese hamster ovary (CHO) cells were stably transfected with calcitonin receptor-like receptor (CRLR), receptor activity modifying protein-1 (RAMP1) and CRE luciferase (cAMP responsive element for control of luciferase gene expression). Luciferase is a reporter-gene reporting accumulation of intracellular cAMP).
Cells were cultured in F12 media supplemented with GlutaMAX™ (Gibco cat no 31765-027), FBS (10%, Gibco 16140-071), Penicillin-streptomycin (1%, Lonza DE-17-602E), G418 (400 μg/ml, Gibco 10131-027), Blasticidine (10 μg/ml, Corning cat no 15205), Hygromycin (400 μg/ml, Calbiochem cat no 400052).
Cells were seeded in a 96 well plate (Packard #6005180), 20000 cells/well in 100 μl media on the day before experimentation. On the day of experimentation media was replaced by assay medium (Dulbecco's media w/o phenol red (Gibco cat no 11880-028) supplemented with 10% FBS (10%, Gibco 16140-071), Hepes (10 mM, Gibco cat no 15630), GlutaMAX™ (2 mM, Gibco cat no 35050), 50 μl/well.
Peptides were diluted in assay media before added to cells for stimulation, 50 μl/well.
Cells were incubated 5% CO2, 37° C. for 4 hours.
Assay medium and peptides were replaced by phosphate buffered saline (PBS, Gibco cat no 14040-091), 100 μl/well and LucLite™ (PerkinElmer, cat no 6076759), 100 μl/well were added. The plate was sealed before incubation for 30 min at room temperature (21° C.). Luciferase activity (luminescens, 7 s/well) was measured (TopCount®, NXT, Packard).
Dose-response curves were fitted by use of GraphPad Prism software and pEC50 values were calculated. Data were given as mean±SEM, n=2 and each analogue was tested twice.

[2] = Pharmacokinetic properties of CGRP and analogues, plasma level by CGRP ELISA; type: in vivo; details: male, Sprague Dawley, rat, sc, SD rats, single s.c. injection, Analog alpha1 151 nmol/kg, Analogue beta1 231 nmol/kg
Experimental: Male Sprague Dawley rats (n=24) weighing approximately 250 g were used for the combined pharmacokinetic (T½, Cmaxetc.) and pharmacodynamic (GLP-1 release) study. The rats were divided in 4 groups with n=6 rats per group. The rats were treated with a single subcutaneous injection (1 ml/kg) of vehicle, alpha-CGRP (138 nmol/kg), Analogue beta1 (231 nmol/kg) or Analog alpha1 (151 nmol/kg). Blood (200 μl) was sampled from vena sublingualis from unanaesthetised rats pre-dose and at 0.5, 1, 3, 7 and 24 hours post dosing. Blood was collected in tubes containing EDTA. The samples were kept on ice and centrifuged. The plasma was kept at −20° C. until analysis for CGRP analog and total GLP-1.
A commercial available kit (Human CGRP ELISA, cat. #A05481, SPIbio) was used for monitoring the plasma levels of CGRP-analogues. Briefly, the assay was a two-sited enzyme-linked immuno sorbent assay (ELISA) using two antibodies against human CGRP. A monoclonal antibody was immobilized to the surface of micro plate wells. Five micro liter of plasma samples or calibrators were applied to the appropriate wells and incubated for 2 hours together with 100 μL buffer and 100 μL AChE-conjugated Fab′ fragment. […] The color intensity was determined by spectrophotometer at 405 nm. […] The lower limit of quantification of the modified CGRP assay was approximately 750 pM and the imprecision was (% CV)<10%.

[3] = CGRP-induced reduction in food intake by automatic food intake measurements (FeedWin); type: in vivo, Sprague Dawley (SD) rats; details: SD rats, s.c., monitored for 48 hours, FIG. 4
Excerpt: Upon arrival male Sprague Dawley (SD) rats were housed two per cage with a dividing wall between them. They were housed at reversed diurnal rhythm and with environmental enrichment. The rats were acclimatized to reversed diurnal rhythm for at least 1 week before being transferred to the experimental system cages (single housed). They were acclimatized to the experimental system cages for an additional 5-6 days before start of the experiment. The rats had ad libitum access to food (Altromin 1324) and water during acclimatization periods.
One day before start of the study the rats were divided in three or four groups (n=5-8) based on body weight (250-300 g).
16 hours before start of the study the rats were fasted. Food was returned in connection with dosing. The rats received a single injection subcutaneously (s.c., 1 ml/kg) with vehicle or CGRP analogue. Intraperitoneally dosing (i.p., 1 ml/kg) was used in the first experiment of the al analogue. The effect of analogues on food and water consumption was examined in a “FeedWIN” system (Ellegaard Systems A/S, Faaborg, Denmark). The system contained 32 stations. In each station the continuous water and food consumption for a single rat was recorded.
A station consisted of a cage with metal lid and two scales placed on each side of the cage. […] Data was collected each 15 minutes and up to 48 hours and expressed as accumulated food intake (Mean±SEM).

Chain of CGRP receptor (calcitonin receptor-like receptor (CRLR), receptor activity modifying protein-1 (RAMP1)) (Q16602 23-461, species assumed): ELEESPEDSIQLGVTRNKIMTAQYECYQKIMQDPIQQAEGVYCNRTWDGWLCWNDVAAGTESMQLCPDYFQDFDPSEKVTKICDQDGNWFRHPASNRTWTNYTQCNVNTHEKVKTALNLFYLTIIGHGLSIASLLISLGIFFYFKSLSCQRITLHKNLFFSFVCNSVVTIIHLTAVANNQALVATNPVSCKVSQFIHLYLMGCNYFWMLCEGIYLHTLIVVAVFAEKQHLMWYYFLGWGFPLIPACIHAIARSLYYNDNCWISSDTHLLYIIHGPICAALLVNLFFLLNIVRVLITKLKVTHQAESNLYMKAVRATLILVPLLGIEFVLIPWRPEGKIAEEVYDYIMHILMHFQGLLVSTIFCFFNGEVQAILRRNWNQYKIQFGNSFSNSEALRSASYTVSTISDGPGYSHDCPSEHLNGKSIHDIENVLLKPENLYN
Chain of CGRP receptor (calcitonin receptor-like receptor (CRLR), receptor activity modifying protein-1 (RAMP1)) (O60894 27-148, species assumed): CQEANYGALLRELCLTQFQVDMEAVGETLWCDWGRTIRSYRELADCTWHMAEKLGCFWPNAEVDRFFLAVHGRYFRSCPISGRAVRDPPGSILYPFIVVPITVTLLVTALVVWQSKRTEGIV

Compound: CC(C)C[C@H](NC(=O)CNC(=O)[C@H](C)NC(=O)[C@H](CC(C)C)NC(=O)[C@H](CCCNC(=N)N)NC(=O)[C@H](Cc1c[nH]cn1)NC(=O)[C@@H](NC(=O)[C@@H](NC(=O)[C@@H]1CSSC[C@H](NC(=O)[C@H](CO)NC(=O)COCCOCCNC(=O)CC[C@H](NC(=O)CCCCCCCCCCCCCCCCC(=O)O)C(=O)O)C(=O)N[C@@H](CC(=O)O)C(=O)N[C@@H]([C@@H](C)O)C(=O)N[C@@H](C)C(=O)N[C@@H]([C@@H](C)O)C(=O)N1)C(C)C)[C@@H](C)O)C(=O)N[C@@H](CC(C)C)C(=O)N[C@@H](CO)C(=O)N[C@@H](CCCNC(=N)N)C(=O)N[C@@H](CO)C(=O)NCC(=O)NCC(=O)N[C@H](C(=O)N[C@H](C(=O)N[C@@H](CCCCN)C(=O)N[C@@H](CC(N)=O)C(=O)N[C@@H](CC(N)=O)C(=O)N[C@@H](Cc1ccccc1)C(=O)N[C@H](C(=O)N1CCC[C@H]1C(=O)N[C@H](C(=O)N[C@@H](CC(N)=O)C(=O)N[C@H](C(=O)NCC(=O)N[C@@H](CO)C(=O)N[C@@H](CCCCN)C(=O)N[C@@H](C)C(=O)N[C@@H](Cc1ccccc1)C(N)=O)C(C)C)[C@@H](C)O)C(C)C)C(C)C)C(C)C [Analogue alpha 1, N-alpha-[2-(2-{2-[(S)-4-Carboxy-4-(17-carboxyheptadecanoylamino)butyrylamino]ethoxy}ethoxy)acetyl][Ser1]alpha-human CGRP peptide]
- EC50 [1]: 0.09 nM
- Cmax [2]: 250 nM
- half-life ([2]; read-out: T½): > 7 h

Compound: N-alpha-[2-(2-{2-[(S)-4-Carboxy-4-(17-carboxyheptadecanoylamino)butyrylamino]ethoxy}ethoxy)acetyl][Ser1]beta-human CGRP peptide [Analogue beta 1]
- accumulated food intake [3]: Reduction in accumulated food intake
